Reference: patent publication US20260365637A1, “DUAL EZH2-HSP90 INHIBITORS” (TAIPEI MEDICAL UNIVERSITY, priority 2023, published 2026)
pIC50: −log10 of the molar value.

Assays:
brafv600e mutant GBM = conditions: literature; cited from earlier work
EZH2 (Core Histone) = EZH2 (Core Histone) (Homo sapiens, UniProt Q15910); assay: EZH2 inhibition assay (Reaction Biology Corporation); assay type: biochemical
Procedure: The EZH2 inhibitory ability of the synthesized adduct was assessed by Reaction Biology Corporation, Malvern, PA (http://www.reactionbiology.com).

Pt3R cells = assay: Cell viability / cytotoxicity of TMZ-resistant Pt3R cells (CCK8); assay type: cell-based, human; conditions: for pIC50: read-out: Cell growth inhibitory effect IC50
HSP90a = HSP90a (Homo sapiens, UniProt P07900); assay: In vitro HSP90 inhibition assay (Reaction Biology Corporation); assay type: biochemical
Procedure: The HSP90 inhibitory activity of the synthesized adduct was assessed by Reaction Biology Corporation, Malvern, PA (http://www.reactionbiology.com).
An in-vitro experiment was performed to assess the inhibitory effect of the synthesized adducts on the heat shock protein 90 (HSP90).

GBM cells = conditions: literature, cited from earlier work
GBM cell lines = assay: Preliminary screening of cell growth inhibition in GBM cell lines; assay type: cell-based; conditions: for cytotoxicity / cell growth inhibition against GBM cell lines: preliminary screening
From the text: As such, Hsp90 is an ATP-dependent molecular chaperone that regulates protein conformation, stability, and degradation. Several HSP90 inhibitors have been evaluated for their anti-GBM efficacy at a preliminary level. […] Reduction in the mRNA and protein expression of EGFR, PDGFRA, CDK4, and NF1 in heterogeneous GBM cells was also evidenced in treatment with AUY922.

EZH2 (Core Histone), sequence (Q15910 whole entry): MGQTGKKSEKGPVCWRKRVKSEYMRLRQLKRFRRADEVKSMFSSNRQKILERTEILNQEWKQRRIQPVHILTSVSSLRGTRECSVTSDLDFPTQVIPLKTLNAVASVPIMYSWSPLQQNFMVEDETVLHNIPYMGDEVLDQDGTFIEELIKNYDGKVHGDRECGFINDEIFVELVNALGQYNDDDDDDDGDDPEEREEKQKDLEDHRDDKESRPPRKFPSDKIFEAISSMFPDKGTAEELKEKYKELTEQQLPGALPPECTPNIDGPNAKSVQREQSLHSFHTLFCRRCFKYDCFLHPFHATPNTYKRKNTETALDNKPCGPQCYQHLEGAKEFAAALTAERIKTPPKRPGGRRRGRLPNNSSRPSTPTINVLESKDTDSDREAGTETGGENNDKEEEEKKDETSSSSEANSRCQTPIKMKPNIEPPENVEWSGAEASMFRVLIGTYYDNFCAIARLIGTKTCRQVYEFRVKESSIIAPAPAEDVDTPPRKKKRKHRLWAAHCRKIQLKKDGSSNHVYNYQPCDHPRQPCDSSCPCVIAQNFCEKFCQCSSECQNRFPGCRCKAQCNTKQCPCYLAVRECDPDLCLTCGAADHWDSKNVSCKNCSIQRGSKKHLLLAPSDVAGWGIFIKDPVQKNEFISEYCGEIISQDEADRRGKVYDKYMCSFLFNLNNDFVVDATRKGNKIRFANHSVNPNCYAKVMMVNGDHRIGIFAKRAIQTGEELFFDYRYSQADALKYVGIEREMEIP
EZH2 (Core Histone), sequence (O75530 whole entry partner): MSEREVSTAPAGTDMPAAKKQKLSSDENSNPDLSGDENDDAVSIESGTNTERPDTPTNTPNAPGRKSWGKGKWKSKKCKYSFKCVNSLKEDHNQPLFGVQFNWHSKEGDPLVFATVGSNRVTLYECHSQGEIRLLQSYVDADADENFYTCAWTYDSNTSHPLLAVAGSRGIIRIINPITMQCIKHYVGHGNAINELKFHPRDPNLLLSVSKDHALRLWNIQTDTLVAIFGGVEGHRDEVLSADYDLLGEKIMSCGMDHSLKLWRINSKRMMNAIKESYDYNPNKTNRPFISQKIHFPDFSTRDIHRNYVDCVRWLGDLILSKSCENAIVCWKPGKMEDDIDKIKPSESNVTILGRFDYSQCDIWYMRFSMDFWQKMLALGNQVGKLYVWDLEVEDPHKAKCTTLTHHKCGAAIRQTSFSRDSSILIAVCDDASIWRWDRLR
EZH2 (Core Histone), sequence (Q15022 whole entry partner): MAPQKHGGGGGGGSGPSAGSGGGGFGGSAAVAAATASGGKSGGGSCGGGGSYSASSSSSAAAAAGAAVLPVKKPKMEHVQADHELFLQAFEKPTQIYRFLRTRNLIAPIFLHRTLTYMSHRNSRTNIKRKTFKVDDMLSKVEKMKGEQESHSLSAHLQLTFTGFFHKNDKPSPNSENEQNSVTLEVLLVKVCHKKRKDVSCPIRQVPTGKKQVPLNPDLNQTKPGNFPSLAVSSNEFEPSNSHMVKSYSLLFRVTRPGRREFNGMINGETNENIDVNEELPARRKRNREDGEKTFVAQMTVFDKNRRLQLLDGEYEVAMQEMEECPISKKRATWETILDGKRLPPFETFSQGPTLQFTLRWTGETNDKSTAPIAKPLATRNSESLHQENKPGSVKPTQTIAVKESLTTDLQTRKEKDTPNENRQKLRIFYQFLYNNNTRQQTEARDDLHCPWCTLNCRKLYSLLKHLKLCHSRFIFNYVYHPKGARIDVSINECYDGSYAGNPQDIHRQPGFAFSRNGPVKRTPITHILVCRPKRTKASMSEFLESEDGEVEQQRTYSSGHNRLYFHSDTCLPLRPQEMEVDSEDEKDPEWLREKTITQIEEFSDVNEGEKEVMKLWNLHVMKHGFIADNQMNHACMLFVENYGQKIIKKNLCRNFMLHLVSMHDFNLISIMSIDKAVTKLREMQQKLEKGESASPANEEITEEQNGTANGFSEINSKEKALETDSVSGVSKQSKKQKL
EZH2 (Core Histone), sequence (Q09028 whole entry partner): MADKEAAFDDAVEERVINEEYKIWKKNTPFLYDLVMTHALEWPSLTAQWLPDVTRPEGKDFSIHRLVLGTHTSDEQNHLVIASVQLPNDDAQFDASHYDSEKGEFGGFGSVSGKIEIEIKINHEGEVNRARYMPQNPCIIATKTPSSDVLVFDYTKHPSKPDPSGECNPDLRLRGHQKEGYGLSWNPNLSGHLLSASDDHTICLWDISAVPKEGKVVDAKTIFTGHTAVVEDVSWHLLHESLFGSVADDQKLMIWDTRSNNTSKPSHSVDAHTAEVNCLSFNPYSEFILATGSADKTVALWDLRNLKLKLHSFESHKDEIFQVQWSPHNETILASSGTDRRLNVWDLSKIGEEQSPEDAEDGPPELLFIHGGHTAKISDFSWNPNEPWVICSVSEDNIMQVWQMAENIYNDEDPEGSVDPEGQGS
EZH2 (Core Histone), sequence (Q6ZN18 whole entry partner): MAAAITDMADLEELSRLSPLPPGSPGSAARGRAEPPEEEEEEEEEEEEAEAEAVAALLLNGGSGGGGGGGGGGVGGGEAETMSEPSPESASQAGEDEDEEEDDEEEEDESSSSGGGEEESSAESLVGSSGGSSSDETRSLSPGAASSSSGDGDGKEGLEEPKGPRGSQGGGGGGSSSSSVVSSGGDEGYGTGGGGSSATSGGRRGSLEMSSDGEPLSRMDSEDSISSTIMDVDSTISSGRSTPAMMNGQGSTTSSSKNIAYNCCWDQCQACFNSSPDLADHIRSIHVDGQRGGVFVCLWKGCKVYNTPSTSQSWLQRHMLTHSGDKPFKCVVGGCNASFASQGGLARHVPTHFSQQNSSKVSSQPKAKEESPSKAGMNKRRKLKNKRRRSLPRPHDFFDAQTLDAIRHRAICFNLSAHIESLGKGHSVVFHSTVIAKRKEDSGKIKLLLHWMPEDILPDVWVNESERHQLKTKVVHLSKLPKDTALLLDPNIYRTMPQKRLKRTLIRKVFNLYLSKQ

SMILES | pIC50 (EZH2 (Core Histone)) | cell growth / viability inhibitory effect in words (Pt3R cells) | pIC50 (Pt3R cells) | HSP90 inhibitory potential in words (HSP90a) | pIC50 (HSP90a) | also measured
COc1c(C)cnc(Cn2cnc3c(Cl)nc(N)nc32)c1C [BIIB021] | – | – | – | – | – | resistance to molecular targeted therapy (brafv600e mutant GBM): overcome resistance to molecular targeted therapy
CCN(c1cc(-c2cccc(NC(=O)c3cc(C(C)C)c(O)cc3O)c2)cc(C(=O)NCc2c(C)cc(C)[nH]c2=O)c1C)C1CCOCC1 [Compound 2, 3′-(2,4-dihydroxy-5-isopropylbenzamido)-N-((4,6-dimethyl-2-oxo-1,2-dihydropyridin-3-yl)methyl)-5-(ethyl(tetrahydro-2H-pyran-4-yl)amino)-4-methyl-[1,1′-biphenyl]-3-carboxamide] | 8.69 | unable to exert cell growth inhibitory effects | < 4.10 | devoid of HSP90 inhibitory potential | – | potency in inhibiting EZH2 relative to compound 1 (EZH2 (Core Histone); compound 2 (3′) vs counterpart 1 (4′)): 3 fold
CCNC(=O)c1noc(-c2cc(C(C)C)c(O)cc2O)c1-c1ccc(CN2CCOCC2)cc1 [AUY922] | – | – | – | – | – | mRNA and protein expression of EGFR, PDGFRA, CDK4, and NF1 (GBM cells; heterogeneous GBM cells): Reduction; anti-GBM effect in GBM cells (GBM cells): led to GBM cell death via apoptosis and autophagy
CCN(C(=O)c1cc(C(C)C)c(O)cc1O)c1ccc(-c2cc(C(=O)NCc3c(C)cc(C)[nH]c3=O)c(C)c(N(CC)C3CCOCC3)c2)cc1 [Compound 4, N-((4,6-dimethyl-2-oxo-1,2-dihydropyridin-3-yl)methyl)-5-(ethyl(tetrahydro-2H-pyran-4-yl)amino)-4′-(N-ethyl-2,4-dihydroxy-5-isopropylbenzamido)-4-methyl-[1,1′-biphenyl]-3-carboxamide] | 8.13 | – | – | conferred HSP90 inhibitory potential | 6.08 | –
CCN(C(=O)c1cc(C(C)C)c(O)cc1O)c1cccc(-c2cc(C(=O)NCc3c(C)cc(C)[nH]c3=O)c(C)c(N(CC)C3CCOCC3)c2)c1 [Compound 8, N-((4,6-dimethyl-2-oxo-1,2-dihydropyridin-3-yl)methyl)-5-(ethyl(tetrahydro-2H-pyran-4-yl)amino)-3′-(N-ethyl-2,4-dihydroxy-5-isopropylbenzamido)-4-methyl-[1,1′-biphenyl]-3-carboxamide] | 7.44 | the only ones to exert cell viability inhibitory potential | 4.97 | conferred HSP90 inhibitory potential | 7.20 | –
CCN(c1cc(-c2ccc(CN3CCOCC3)cc2)cc(C(=O)NCc2c(C)cc(C)[nH]c2=O)c1C)C1CCOCC1 [Tazemetostat] | – | unable to exert cell growth inhibitory effects | – | – | – | anti-GBM efficacy (GBM cell lines): did not exhibit anti-GBM efficacy; cytotoxicity / cell growth inhibition against GBM cell lines (GBM cell lines; listed as tazemetosat): cytotoxicity-devoid trends; cytotoxicity / cell growth inhibition against GBM cell lines (GBM cell lines; listed as tazemetostat (I)): could not exert cell growth inhibitory potential against the GBM cell lines
O=C1C=C(Nc2ccc3cnccc3c2)c2ccccc2C1=O [YZ129] | – | – | – | – | – | anti-GBM effect in GBM cells (GBM cells): promoted apoptosis and exerted GBM cell cycle arrest at the G2/M phase, inhibiting tumour cell proliferation and migration
CCN(c1cc(-c2ccc(N(Cc3ccccc3)C(=O)c3cc(C(C)C)c(O)cc3O)cc2)cc(C(=O)NCc2c(C)cc(C)[nH]c2=O)c1C)C1CCOCC1 [Compound 6, 4′-(N-benzyl-2,4-dihydroxy-5-isopropylbenzamido)-N-((4,6-dimethyl-2-oxo-1,2-dihydropyridin-3-yl)methyl)-5-(ethyl(tetrahydro-2H-pyran-4-yl)amino)-4-methyl-[1,1′-biphenyl]-3-carboxamide] | 7.93 | – | < 4.10 | could not replicate the activity-conferring trends | – | –
CC(C)c1cc(-c2n[nH]c(=O)n2-c2ccc3c(ccn3C)c2)c(O)cc1O [STA9090] | – | – | – | – | – | cytotoxicity / cell growth inhibition against GBM cell lines (GBM cell lines): moderate cytotoxicity; cell growth inhibitory effects relative to the cocktail (GBM cell lines; single agent vs combination with Tazemetostat): several fold less than that observed with the cocktail
CCN(c1cc(-c2ccc(N(C)C(=O)c3cc(C(C)C)c(O)cc3O)cc2)cc(C(=O)NCc2c(C)cc(C)[nH]c2=O)c1C)C1CCOCC1 [Compound 3, 4′-(2,4-dihydroxy-5-isopropyl-N-methylbenzamido)-N-((4,6-dimethyl-2-oxo-1,2-dihydropyridin-3-yl)methyl)-5-(ethyl(tetrahydro-2H-pyran-4-yl)amino)-4-methyl-[1,1′-biphenyl]-3-carboxamide] | 8.14 | the only ones to exert cell viability inhibitory potential | 4.56 | conferred HSP90 inhibitory potential | 6.46 | –
CCN(c1cc(-c2ccc(NC(=O)c3cc(C(C)C)c(O)cc3O)cc2)cc(C(=O)NCc2c(C)cc(C)[nH]c2=O)c1C)C1CCOCC1 [Compound 1, 4′-(2,4-dihydroxy-5-isopropylbenzamido)-N-((4,6-dimethyl-2-oxo-1,2-dihydropyridin-3-yl)methyl)-5-(ethyl(tetrahydro-2H-pyran-4-yl)amino)-4-methyl-[1,1′-biphenyl]-3-carboxamide] | 8.21 | unable to exert cell growth inhibitory effects | < 4.10 | devoid of HSP90 inhibitory potential | – | –
CCCN(C(=O)c1cc(C(C)C)c(O)cc1O)c1ccc(-c2cc(C(=O)NCc3c(C)cc(C)[nH]c3=O)c(C)c(N(CC)C3CCOCC3)c2)cc1 [Compound 5, 4′-(2,4-dihydroxy-5-isopropyl-N-propylbenzamido)-N-((4,6-dimethyl-2-oxo-1,2-dihydropyridin-3-yl)methyl)-5-(ethyl(tetrahydro-2H-pyran-4-yl)amino)-4-methyl-[1,1′-biphenyl]-3-carboxamide] | 7.66 | – | < 4.10 | could not replicate the activity-conferring trends | – | –
CCCN(C(=O)c1cc(C(C)C)c(O)cc1O)c1cccc(-c2cc(C(=O)NCc3c(C)cc(C)[nH]c3=O)c(C)c(N(CC)C3CCOCC3)c2)c1 [Compound 9, 3′-(2,4-dihydroxy-5-isopropyl-N-propylbenzamido)-N-((4,6-dimethyl-2-oxo-1,2-dihydropyridin-3-yl)methyl)-5-(ethyl(tetrahydro-2H-pyran-4-yl)amino)-4-methyl-[1,1′-biphenyl]-3-carboxamide] | 7.40 | unable to exert cell growth inhibitory effects | < 4.10 | could not replicate the activity-conferring trends | 5.03 | –
CCN(c1cc(-c2cccc(N(Cc3ccccc3)C(=O)c3cc(C(C)C)c(O)cc3O)c2)cc(C(=O)NCc2c(C)cc(C)[nH]c2=O)c1C)C1CCOCC1 [Compound 10, 3′-(N-benzyl-2,4-dihydroxy-5-isopropylbenzamido)-N-((4,6-dimethyl-2-oxo-1,2-dihydropyridin-3-yl)methyl)-5-(ethyl(tetrahydro-2H-pyran-4-yl)amino)-4-methyl-[1,1′-biphenyl]-3-carboxamide] | 6.19 | unable to exert cell growth inhibitory effects | < 4.10 | could not replicate the activity-conferring trends | 5.55 | –
